This note sets out measurements from US5670358A, “Method for inhibiting chymopapain and papain enzyme activity with polysaccharides of animal origin” (Baxter International Inc., priority 1995, dated 1997).

The test system of one test is trypsin. Briefly: Trypsin protease activity, hydrolysis of BAPNA synthetic substrate (absorbance 415 nm). The test is classed as biochemical. The following applies: for Trypsin % Inhibited: 37° C., Tricine buffer 50 mM, 10 mM CaCl2. As for the experimental part: (§1) The invention will be better understood by reference to the following nonlimiting examples which illustrate the use of the animal-derived polysaccharide materials of the present invention in inhibiting various enzymes. In these examples the activities of chymopapain and papain were determined by assay using BAPNA, N-benzoyl-L-arginine-p-nitroanilide synthetic substrate by measuring the increase in absorbance at 415 nm. The activity of clostripain was determined by assay using BAEE, N-benzoyl-L-arginine ethyl ester synthetic substrate by measuring the increase in absorbance at […]. The activity of trypsin was determined by assay using BAPNA.
(§2) Protease activity was determined by measuring the reaction rates for the hydrolysis of synthetic substrates for the enzymes trypsin, chymopapain, papain, and clostripain. The increase in absorbance at 415 nm was used for the measurement of the reaction rates for trypsin, chymopapain and papain upon a BAPNA substrate. The increase in absorbance at 253 nm was used for the measurement of the reaction rates for clostripain. Trypsin, chymopapain and papain activities were determined at 37° C. in Tricine buffer, 50 mM, containing 10 mM CaCl2. Clodytipain activity was determined at room temperature. Chymopapain, papain, and clostripain were activated with L-cysteine or dithiothreitol reducing agent prior to assay. Concentration of reducing agent in the substrate solution was maintained at 5 mM by addition of reducing agent to the substrate solution.
(§3) Glycogen was dissolved in the assay buffer to a final concentration of 1%. The percentage inhibition was obtained from the ratio of enzyme activity in the presence of inhibitor to the activity of a control to which no inhibitor was added.

The next test relates to chymopapain. Briefly: Chymopapain protease activity, hydrolysis of BAPNA synthetic substrate (absorbance 415 nm). The test is classed as biochemical, papaya. The following applies: for Chymopapain % Inhibited: 37° C., Tricine buffer 50 mM, 10 mM CaCl2. On the procedure: as §1, §2, §3
A further test concerns papain. Briefly: Papain protease activity, hydrolysis of BAPNA synthetic substrate (absorbance 415 nm). In kind it is biochemical, papaya. The following applies: 37° C., Tricine buffer 50 mM, 10 mM CaCl2. On the procedure: as §1, §2
The percentage inhibition was obtained from the ratio of enzyme activity in the presence of inhibitor to the activity of a control to which no inhibitor was added.

For a further test, the system named is clostripain. The test can be described thus: Clostripain protease activity, hydrolysis of BAEE synthetic substrate (absorbance 253 nm). In kind it is biochemical. The following applies: for Clostripain % Inhibited: room temperature. On the procedure: as §1, §2, §3
Where [1] appears, read: inhibitor concentration 1%, listed as glycogen.
Setting [2] is: inhibitor concentration 0.5%, listed as hyaluronic acid.

Turning to Desulfated heparin, in the test on trypsin (inhibitor concentration 0.5%), the “effectiveness in inhibiting trypsin relative to chymopapain and papain” value is listed as “less than one-half as effective”; the “Trypsin % Inhibited” value was 4.1%. The “Chymopapain % Inhibited” value with chymopapain (inhibitor concentration 0.5%) is reported as 8.8%. Further, the “Papain % Inhibited” value with papain (inhibitor concentration 0.5%) was found to be 9.8%. In addition, in the test on clostripain (inhibitor concentration 0.5%), the “effectiveness in inhibiting clostripain relative to chymopapain and papain” value is “about one-tenth as effective”; the “Clostripain % Inhibited” value is listed as 0.8%.

Consider Glycogen, for which the “Trypsin % Inhibited” value in the test on trypsin (inhibitor concentration 1%) was 1.1%; in the test with trypsin (setting [1]), “about 1%”. The “effectiveness as inhibitor of chymopapain and papain activity relative to trypsin activity” value in the test with chymopapain (inhibitor concentration 1%) is reported as 10-20 times. Also, the “Chymopapain % Inhibited” value in the test with chymopapain (inhibitor concentration 1%) is given as 17%. Also, in the test with papain (inhibitor concentration 1%), the “Papain % Inhibited” value came to 12.5%. For the same substance, the “Clostripain % Inhibited” value with clostripain (inhibitor concentration 1%) is on record as 0%; in the test with clostripain (setting [1]) it was “no inhibiting effect”.

As for Hyaluronic acid, the figures for the “Trypsin % Inhibited” value in the test with trypsin (inhibitor concentration 0.5%) and in the test on trypsin (setting [2]) were 0% and “no inhibiting effect”, respectively. Also, the “Chymopapain % Inhibited” value in the test with chymopapain (inhibitor concentration 0.5%) was 34.2%; in the test on chymopapain (setting [2]), “effective”. Further, the figures for the “Papain % Inhibited” value with papain (inhibitor concentration 0.5%) and with papain (setting [2]) were 35.8% and “effective”, respectively. The “Clostripain % Inhibited” value in the test on clostripain (inhibitor concentration 0.5%) is listed as 0%; in the test with clostripain (setting [2]), “no inhibiting effect”.
